The record followed here is patent US8808500B2, “Method for the use of oxidants for microbial control under reducing conditions” (Lonza Inc., priority 2011, dated 2014).

A short description of data set [1]: Residual total halogen (DPD) after adding sodium hypochlorite to borohydride solution. It counts as physicochemical. As to conditions: for Total Halogen with DMDMH: borohydride solution treated with DMDMH; for Total Halogen without DMDMH: borohydride solution, no DMDMH. The protocol:
The remaining halogen concentration was then measured by standard DPD total halogen methodologies over time.
(§1) For comparison, the residual total halogen (as Cl2) was analyzed without the use of dimethyloldimethylhydantoin.

A short description of data set [2]: ORP of sodium borohydride solution over time after adding aldehyde donor. It counts as physicochemical. As to the method:
Aqueous solutions containing sodium borohydride were mixed at 21° C. to obtain a solution having an initial borohydride content (as NaBH4) of 30-50 ppm, an alkalinity (as CaCO3) of 400 ppm, and a pH of 8.5-9.5. The temperature of the solution was maintained at 21° C. and the ORP of the solution was measured at specified time intervals. The procedure consisted of adding a known amount of aldehyde donor, such as dimethyloldimethylhydantoin or glyoxal, to the samples at a known molar ratio with respect to the borohydride content and following the time-dependence of the ORP.
as §1

Setting [3] is: 2 min after addition of sodium hypochlorite.
[4] abbreviates: 43 min after addition of sodium hypochlorite.

As to `CC1(C)C(=O)N(CO)C(=O)N1CO` [DMDMH, dimethyloldimethylhydantoin], the figures for the “Total Halogen with DMDMH” value in data set [1] (setting [3]) and in data set [1] (setting [4]) were 1.59 ppm as Cl2 and 1.33 ppm as Cl2, respectively. The “ORP - DMDMH treated” value in data set [2] (setting [3]) was −251 mV; in data set [2] (setting [4]), −77 mV.
For `OCl` [sodium hypochlorite, reference compound], the “Total Halogen without DMDMH” value in data set [1] (setting [3]) and in data set [1] (setting [4]) was below 0.1 ppm as Cl2 in each case.
